Converted amounts (≈) assume the structure as drawn.
Assays:
feline SGLT2 = test: Inhibition of feline SGLT2
cats = test: Urinary glucose excretion in cats given bexagliflozin tablets; type: in vivo, cat
Solubility = type: physicochemical
purpose-bred beagles = test: 24 h urine collection (glucose excretion, volume, electrolytes) in dogs; type: in vivo, dog; conditions: for 24 h urine Cl^− / 24 h urine K^+ / 24 h urine Na^+ / 24 h urine Volume: mean ± SD, n=4
Procedure: (§1) Groups of four purpose-bred beagles per cohort were administered ascending doses of bexagliflozin in the form of a proline co-crystal consisting of two moles of L-proline for every mole of bexagliflozin. The co-crystal was dissolved in 10% PEG400 and administered by oral gavage to dogs that had been fasted overnight. Control dogs were administered 10% PEG400. One hour after dosing, glucose solution (2 g kg^−1, 5 ml kg^−1) was administered by gavage. Serum glucose concentrations were quantitated by an automated clinical chemistry analyzer for samples collected before dosing, before glucose challenge, and 15, 30, 60, and 120 min after glucose challenge. Urine was collected from 0 to 4 h, 4 to 8 h and 8 to 24 h after dosing for electrolyte analyses (Na^+, K^+, Cl^− and Ca^2+) and glucose measurement. Whole blood samples of approximately 500 μL were collected from the cephalic vein 0, 0.25, 0.5, 1, 2, 4, 8, 12 and 24 h after dosing for pharmacokinetic analysis.
Urine output increased in the treatment group, consistent with an osmotic diuresis or with a role for the inhibited transporters in water reuptake in the proximal tubule.

cats with diabetes [1] = test: Measures of renal health (creatinine, BUN, SDMA) in diabetic cats managed with bexagliflozin, MMRM analysis; type: in vivo, cat
Description: Venous blood specimens were collected at regular intervals and analyzed for standard parameters of interest for routine clinical care, including creatinine, BUN and SDMA. Owners were advised to provide a diet low in carbohydrates as an element of the disease management plan. An important consequence of the shift to a low carbohydrate diet is the increase in dietary protein (contributing to BUN) and specifically dietary muscle-derived protein (contributing to creatinine).
FIG. 6, FIG. 7 and FIG. 8 show the measured concentrations of creatinine, BUN and SDMA in cats as a function of time in the study. […] Considerable variation can be seen in the individual values.
To identify treatment-related trends, the data for each of the three analytes were analyzed by a mixed model repeated measures (MMRM) analysis of covariance, with cat as a categorical (class) effect and day of measurement and initial value at the baseline visit as continuous covariates. Because the diets of many of the animals were changed at the baseline visit, and the effects of diet on creatinine and BUN are generally thought to be prompt, the analysis considered only changes in analyte values over the non-baseline visit days.

in vivo = conditions: dog; for Tmax / half-life / AUC(0-inf) / AUC(0-t) / CL/F / Cmax / Vd/F: beagle, po
Procedure: as §1

cats with diabetes [2] = test: Owner and veterinarian assessments of vitality and weight in diabetic cats; type: in vivo, cat
Description: Assessments by both owners and veterinarians of correlative measures of cat vitality were also collected over the course of various studies. Some of the relevant measures for this analysis are the subjective impressions of cat musculature, solicited from both owners and veterinarians, and owner views of cat overall activity as well as leaping ability. The rating instrument was a 4-point scale with 0=excellent, 1=good, 2=fair and 3=poor.

For OC[C@H]1O[C@@H](c2ccc(Cl)c(Cc3ccc(OCCOC4CC4)cc3)c2)[C@H](O)[C@@H](O)[C@@H]1O [Bexagliflozin, (2S,3R,4R,5 S,6R)-2-(4-chloro-3-(4-(2-cyclopropoxyethoxy)benzyl)phenyl)-6-(hydroxymethyl)tetrahydro-2H-pyran-3,4,5-triol], the “inhibition of feline SGLT2 (in words)” value (feline SGLT2) was “potent but less selective inhibitor”, the “% of the maximum pharmacodynamic effect” value (cats; cats, dose 200 μg kg^−1, based on results in purpose-bred cats) was 28% and the “% of the maximum pharmacodynamic effect” value (cats; cats, dose 400 μg kg^−1) was 44%. The “% of the maximum pharmacodynamic effect” value (cats; cats, dose 800 μg kg^−1) was 61%, the “% of the maximum pharmacodynamic effect” value (cats; cats, dose 1600 μg kg^−1) was 76% and the “% of the maximum pharmacodynamic effect” value (cats; cats, dose 3200 μg kg^−1) was 86%. The “% of the maximum pharmacodynamic effect” value (cats; cats, dose 6400 μg kg^−1) was 93%, the “% of the maximum pharmacodynamic effect” value (cats; cats, dose 12800 μg kg^−1) was 96% and the “% of the maximum pharmacodynamic effect” value (cats; cats, dose 25600 μg kg^−1) was 98%. The “ED50 for urinary glucose excretion” value (cats; cats, tablets of varying strengths, simple logistic model) was “approximately 0.5 mg kg^−1”, the “Emax for urinary glucose excretion” value (cats; healthy cats) was 2.21 g of glucose per kg of body mass and the “solubility in ethanol, propylene glycol and PEGs relative to water” value (Solubility) was “more soluble”. The solubility (Solubility; water at 25° C.) was about 500 µg/mL (≈ 1080 µM), the “24 h urine Cl^−” value (purpose-bred beagles; dogs, 0.02 mg kg^−1 oral) was 307.4 ± 87.7 mg and the “24 h urine K^+” value (purpose-bred beagles; dogs, 0.02 mg kg^−1 oral) was 426.2 ± 62.1 mg. The “24 h urine Na^+” value (purpose-bred beagles; dogs, 0.02 mg kg^−1 oral) was 178.7 ± 16.7 mg, the “24 h urine Volume” value (purpose-bred beagles; dogs, 0.02 mg kg^−1 oral) was 118.0 ± 30.8 mL and the “24 h urine Cl^−” value (purpose-bred beagles; dogs, 0.067 mg kg^−1 oral) was 403.4 ± 111.4 mg. For the same compound, the “24 h urine K^+” value (purpose-bred beagles; dogs, 0.067 mg kg^−1 oral) was 476.8 ± 96.5 mg, the “24 h urine Na^+” value (purpose-bred beagles; dogs, 0.067 mg kg^−1 oral) was 220.9 ± 53.9 mg and the “24 h urine Volume” value (purpose-bred beagles; dogs, 0.067 mg kg^−1 oral) was 153.1 ± 44.5 mL. The “24 h urine Cl^−” value (purpose-bred beagles; dogs, 0.20 mg kg^−1 oral) was 526.5 ± 127.8 mg, the “24 h urine K^+” value (purpose-bred beagles; dogs, 0.20 mg kg^−1 oral) was 558.8 ± 118.2 mg and the “24 h urine Na^+” value (purpose-bred beagles; dogs, 0.20 mg kg^−1 oral) was 275.7 ± 69.5 mg. The “24 h urine Volume” value (purpose-bred beagles; dogs, 0.20 mg kg^−1 oral) was 214.1 ± 53.5 mL, the “24 h urine Cl^−” value (purpose-bred beagles; dogs, 0.67 mg kg^−1 oral) was 573.9 ± 166.5 mg and the “24 h urine K^+” value (purpose-bred beagles; dogs, 0.67 mg kg^−1 oral) was 587.7 ± 113.5 mg. For the same compound, the “24 h urine Na^+” value (purpose-bred beagles; dogs, 0.67 mg kg^−1 oral) was 300.2 ± 66.4 mg, the “24 h urine Volume” value (purpose-bred beagles; dogs, 0.67 mg kg^−1 oral) was 225.0 ± 66.9 mL and the “24 h urine Cl^−” value (purpose-bred beagles; dogs, 2.0 mg kg^−1 oral) was 595.8 ± 80.6 mg. For the same compound, the “24 h urine K^+” value (purpose-bred beagles; dogs, 2.0 mg kg^−1 oral) was 599.7 ± 93.5 mg, the “24 h urine Na^+” value (purpose-bred beagles; dogs, 2.0 mg kg^−1 oral) was 313.1 ± 35.1 mg and the “24 h urine Volume” value (purpose-bred beagles; dogs, 2.0 mg kg^−1 oral) was 247.7 ± 35.2 mL. For the same compound, the “% of the maximum pharmacological effect” value (purpose-bred beagles; dogs, approximately 1 mg kg^−1 once daily) was “approximately 90%”, the “maximum urinary glucose excretion per body mass” value (purpose-bred beagles; dogs, average mass 5.84 kg) was 4.23 g glucose per kg of body mass and the “% of the maximum pharmacodynamic effect” value (purpose-bred beagles; dogs, dose 50 μg kg^−1, based on results in beagle dogs) was 30%. For the same compound, the “% of the maximum pharmacodynamic effect” value (purpose-bred beagles; dogs, dose 100 μg kg^−1) was 46%, the “% of the maximum pharmacodynamic effect” value (purpose-bred beagles; dogs, dose 200 μg kg^−1) was 63% and the “% of the maximum pharmacodynamic effect” value (purpose-bred beagles; dogs, dose 400 μg kg^−1) was 77%. The “% of the maximum pharmacodynamic effect” value (purpose-bred beagles; dogs, dose 800 μg kg^−1) was 87%, the “% of the maximum pharmacodynamic effect” value (purpose-bred beagles; dogs, dose 1600 μg kg^−1) was 93% and the “% of the maximum pharmacodynamic effect” value (purpose-bred beagles; dogs, dose 3200 μg kg^−1) was 96%. For the same compound, the “% of the maximum pharmacodynamic effect” value (purpose-bred beagles; dogs, eighth value, no matching dose printed) was 98%, the “Emax for urinary glucose excretion” value (purpose-bred beagles; dogs, simple logistic model fit) was 24.69 g of glucose in 24 h and the “ED50 for 24 h urinary glucose excretion” value (purpose-bred beagles; dogs, simple logistic model fit, doses 0.02 to 2.0 mg kg^−1) was 0.116 mg/kg. For the same compound, the “potency by ED50 in dogs relative to cats” value (purpose-bred beagles; urinary glucose excretion ED50, dogs vs cats) was “approximately 4 times”, the “model-adjusted population mean BUN concentration” value (cats with diabetes [1]; diabetic cats on bexagliflozin) was 33.82 mg/dL and the “model-adjusted population mean SDMA concentration” value (cats with diabetes [1]; diabetic cats on bexagliflozin) was 19.10 µg/dL. For the same compound, the “model-adjusted population mean creatinine concentration” value (cats with diabetes [1]; diabetic cats on bexagliflozin, non-baseline visits) was 1.367 mg/dL, the “estimated coefficient for day of measurement, creatinine” value (cats with diabetes [1]; diabetic cats, p<0.0001) was 0.000928 and the “estimated coefficient for day of measurement, BUN” value (cats with diabetes [1]; diabetic cats, p=0.0172) was −0.01346. For the same compound, the “estimated coefficient for day of measurement, SDMA” value (cats with diabetes [1]; diabetic cats, p=0.5338, not significant) was −0.0021, the Tmax (in vivo) was about 0.5 h and the half-life (in vivo) was 1.67 to 5.23 h. It also gave an AUC(0-inf) (in vivo; 0.02 mg/kg) of 45.3 ± 7.9 ng·h/mL, an AUC(0-t) (in vivo; 0.02 mg/kg) of 35.6 ± 5.2 ng·h/mL and a CL/F (in vivo; 0.02 mg/kg) of 7.6 mL/min/kg. For the same compound, the Cmax (in vivo; 0.02 mg/kg) was 16.3 ± 2.7 ng/mL, the Tmax (in vivo; 0.02 mg/kg) was 0.5 h and the Vd/F (in vivo; 0.02 mg/kg) was 1.08 ± 0.128 L/kg. It also gave a half-life (in vivo; 0.02 mg/kg) of 1.67 ± 0.26 h, an AUC(0-inf) (in vivo; 0.067 mg/kg) of 257 ± 62 ng·h/mL and an AUC(0-t) (in vivo; 0.067 mg/kg) of 240 ± 55 ng·h/mL. For the same compound, the CL/F (in vivo; 0.067 mg/kg) was 4.53 mL/min/kg, the Cmax (in vivo; 0.067 mg/kg) was 72.9 ± 11 ng/mL and the Tmax (in vivo; 0.067 mg/kg) was 0.5 h. The Vd/F (in vivo; 0.067 mg/kg) was 1.06 ± 0.067 L/kg, the half-life (in vivo; 0.067 mg/kg) was 2.81 ± 0.61 h and the AUC(0-inf) (in vivo; 0.2 mg/kg) was 769 ± 95 ng·h/mL. The AUC(0-t) (in vivo; 0.2 mg/kg) was 725 ± 80 ng·h/mL, the CL/F (in vivo; 0.2 mg/kg) was 4.42 mL/min/kg and the Cmax (in vivo; 0.2 mg/kg) was 233 ± 26 ng/mL. The Tmax (in vivo; 0.2 mg/kg) was 0.25 h, the Vd/F (in vivo; 0.2 mg/kg) was 1.12 ± 0.08 L/kg and the half-life (in vivo; 0.2 mg/kg) was 2.95 ± 0.28 h. For the same compound, the AUC(0-inf) (in vivo; 0.67 mg/kg) was 2670 ± 131 ng·h/mL, the AUC(0-t) (in vivo; 0.67 mg/kg) was 2600 ± 104 ng·h/mL and the CL/F (in vivo; 0.67 mg/kg) was 4.2 mL/min/kg. The Cmax (in vivo; 0.67 mg/kg) was 801 ± 46 ng/mL, the Tmax (in vivo; 0.67 mg/kg) was 0.5 h and the Vd/F (in vivo; 0.67 mg/kg) was 1.89 ± 0.398 L/kg. It also gave a half-life (in vivo; 0.67 mg/kg) of 5.23 ± 1.23 h, an AUC(0-inf) (in vivo; 2 mg/kg) of 8700 ± 1470 ng·h/mL and an AUC(0-t) (in vivo; 2 mg/kg) of 8600 ± 1520 ng·h/mL. The CL/F (in vivo; 2 mg/kg) was 3.95 mL/min/kg, the Cmax (in vivo; 2 mg/kg) was 2200 ± 539 ng/mL and the Tmax (in vivo; 2 mg/kg) was 0.5 h. For the same compound, the Vd/F (in vivo; 2 mg/kg) was 1.37 ± 0.601 L/kg, the half-life (in vivo; 2 mg/kg) was 3.89 ± 0.88 h and the “dose proportionality of Cmax and AUC” value (in vivo) was “roughly dose proportional”. For the same compound, the “owner assessment of activity” value (cats with diabetes [2]; 4-point scale) was “more active”, the “owner assessment of leaping ability” value (cats with diabetes [2]; 4-point scale) was “better leaping ability” and the “veterinarian and owner assessments of musculature” value (cats with diabetes [2]; 4-point scale, statistically significant) was “musculature of study cats had improved”. For the same compound, the mean cat weight (cats with diabetes [2]; by visit, highly significant) was “mean cat weight increased”.

— patent US20230000816A1, “SODIUM-GLUCOSE LINKED TRANSPORTER INHIBITORS FOR THE MANAGEMENT OF CHRONIC KIDNEY DISEASE, HYPERTENSION, AND HEART FAILURE IN COMPANION ANIMALS” (INCREVET, INC., priority 2019, published 2023)
